Experimental data: ChEMBL document CHEMBL3879887, “Aminocyclohexyl ether compounds and uses thereof” (2007)

Legend:
[1] = Therapeutic index, ratio of neurotoxicity in iv dosed Sprague-Dawley rat assessed as total amount of drug infused at the point that partial or complete convulsions are first observed to 20 times ED50 for antiarrhythmic activity in iv dosed Sprague-Dawley rat coronary artery occlusion model; format: organism-based; settings: in vivo; for selectivity ratio: Sprague-Dawley, read-out: TI
[2] = Neurotoxicity in iv dosed Sprague-Dawley rat assessed as total amount of drug infused at the point that partial or complete convulsions are first observed; format: toxicity, organism-based; settings: in vivo
Rattus norvegicus = test: Antiarrhythmic activity in iv dosed Sprague-Dawley rat coronary artery occlusion model administered via infusion for 5 mins starting 15 post surgery followed by coronary artery occlusion measured for 15 mins by electrocardiogram; format: functional
[3] = Neurotoxicity in iv dosed Sprague-Dawley rat assessed as minimum infusion rate of the compound require for partial and complete convulsion; format: toxicity, organism-based; settings: in vivo
Canis familiaris = test: Inhibition of atrial fibrillation in iv dosed Mongrel dog vagal-atrial fibrillation model administered via infusion pump over 5 mins by electrophysiological method; format: functional, Canis lupus familiaris

Structure (SMILES) | selectivity ratio [1] | also measured
O[C@@H]1CCN(C2CCCC[C@@H]2OCCc2cc3ccccc3o2)C1 (stereo partly drawn) | 3.3 | –
COc1ccc(CCCCO[C@H]2CCCCC2N2CCOCC2)cc1OC (stereo partly drawn) | 2.2 | –
COc1ccc(CCOC2CCCC[C@H]2N2CCN(C(=O)Cc3ccc(OC)c(OC)c3)CC2)cc1OC (stereo partly drawn) | 11.1 | –
Cl.OC1CCN(C2CCCC[C@@H]2OCCc2cccc3ccccc23)C1 (stereo partly drawn) | – | TI [1]: 4.3
Cl.OC1CCN([C@@H]2CCCC[C@@H]2OCCc2cccc3ccccc23)C1 (stereo partly drawn) | – | TI [1]: 8.8
COc1ccc(CCO[C@H]2CCCCC2N2CC[C@@H](OCc3ccccc3)C2)cc1OC (stereo partly drawn) | 2.6 | –
COc1ccc(CCO[C@H]2CCCCC2N2CC[C@H](OC(C)=O)C2)cc1OC (stereo partly drawn) | 2 | –
Clc1cccc(Cl)c1CCOC1CCCC[C@H]1N1CCSC1 (stereo partly drawn) | 2.5 | –
c1ccc2c(CCO[C@H]3CCCCC3N3CCOCC3)cccc2c1 (stereo partly drawn) | 4.7 | –
COc1ccc(CCO[C@@H]2CCCC[C@H]2N2CC[C@@H](OC(C)=O)C2)cc1OC | 1.8 | –
O=C1CCN(C2CCCC[C@@H]2OCC(c2ccccc2)c2ccccc2)C1 (stereo partly drawn) | 3.1 | –
Clc1ccc(CCO[C@H]2CCCCC2N2CCOCC2)cc1Cl (stereo partly drawn) | 3.9 | –
O=C1CCN(C2CCCC[C@@H]2OCCc2c(Cl)cccc2Cl)C1 (stereo partly drawn) | 8.6 | –
OC1CCN(C2CCCC[C@@H]2OCCc2ccccc2Br)C1 (stereo partly drawn) | 8.4 | –
Brc1ccc(CCO[C@H]2CCCCC2N2CCOCC2)cc1 (stereo partly drawn) | 2.2 | –
COc1ccc(CCOC2CCCC[C@H]2N2CCC(=O)C2)cc1OC (stereo partly drawn) | 2.6 | –
Clc1cccc(Cl)c1COC1CCCC[C@H]1N1CCOCC1 (stereo partly drawn) | 2.7 | –
CC(=O)OC1CCN([C@@H]2CCCCC2OCCc2cccc3ccccc23)C1 (stereo partly drawn) | 2.3 | –
OC1CCN(C2CCCC[C@@H]2OCCc2c(Cl)cccc2Cl)C1 (stereo partly drawn) | 5.4 | –
COc1ccc(CCO[C@H]2CCCCC2N2CCOCC2)cc1OC (stereo partly drawn) | – | TI [1]: 1.4

Structure (SMILES) | selectivity ratio [1] | also measured
c1ccc2c(CCO[C@H]3CCCCC3N3CCOCC3)csc2c1 (stereo partly drawn) | 3.3 | –
OC1CCN(C2CCCC[C@@H]2OCCn2ccc3ccccc32)C1 (stereo partly drawn) | 9.4 | –
Brc1ccccc1CCO[C@H]1CCCCC1N1CCOCC1 (stereo partly drawn) | 6.3 | –
O[C@@H]1CCN(C2CCCC[C@@H]2OCCc2ccccc2C(F)(F)F)C1 (stereo partly drawn) | 7.3 | –
COc1ccc(CCOC2CCCC[C@H]2N2CCC(F)C2)cc1OC (stereo partly drawn) | 2.3 | –
c1ccc2cc(CCO[C@H]3CCCCC3N3CCOCC3)ccc2c1 (stereo partly drawn) | 5.3 | –
c1ccc2cc(OCCO[C@H]3CCCCC3N3CCOCC3)ccc2c1 (stereo partly drawn) | 1.5 | –
Brc1ccc(OCCO[C@H]2CCCCC2N2CCOCC2)cc1 (stereo partly drawn) | 1.4 | –
COc1ccc(CCO[C@H]2CCCCC2N2CCC[C@@H]2CO)cc1OC (stereo partly drawn) | 8.9 | –
COc1ccc(CCO[C@H]2CCCCC2N2CCC3(C2)OCCO3)cc1OC (stereo partly drawn) | 2.9 | –
COc1cc(CCCO[C@H]2CCCCC2N2CC[C@@H](O)C2)cc(Cl)c1OC (stereo partly drawn) | 7.6 | –
c1cc(CCO[C@H]2CCCCC2N2CCOCC2)c2ccsc2c1 (stereo partly drawn) | 2.7 | –
COc1ccc(CCOC2CCCCC2N2CCCC2)cc1OC.Cl (stereo not drawn) | 0.9 to 4.4 | Activity [2]: 44.4 to 118 µmol/kg; ED50 (Rattus norvegicus): 1.33 to 2.4 µmol/kg/min; Activity [3]: 8 to 21.3 µmol/kg/min
O=C1CCN([C@@H]2CCCCC2OCc2c(Cl)cccc2Cl)C1 (stereo partly drawn) | 5.1 | –
COc1ccc(CCOC2CCCC[C@H]2N2CCOCC2)cc1OC.Cl (stereo partly drawn) | – | TI [1]: 3.8
Brc1cccc(CCO[C@H]2CCCCC2N2CCOCC2)c1 (stereo partly drawn) | 3.3 | –
COc1ccc(CCO[C@H]2CCCCC2N2CC[C@H](OCc3ccccc3)C2)cc1OC.Cl (stereo partly drawn) | 3.8 | Activity [3]: 8 µmol/kg/min
FC(F)(F)c1ccccc1CCO[C@H]1CCCC[C@H]1N1CCOCC1 (racemic) | 3.6 | –
O=C(NCC1CCCCN1)c1cc(OCC(F)(F)F)ccc1OCC(F)(F)F (stereo not drawn) [FLECAINIDE] | – | ED (Canis familiaris): 1 to 10 µmol/kg
